The values below come from patent US20250074910A1, “MENIN INHIBITOR AND USE THEREOF” (HITGEN INC., priority 2021, published 2025).

The subject of data set [1] is OCI-AML3. Description: Cell proliferation inhibition (CellTiter-Glo), OCI-AML3 (NPM1 mutation). It counts as cell-based. Conditions: Homo sapiens, OCI-AML-3, 168 h, OCI-AML3 cells. An outline of the steps:
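IC50 values come from dose-response fitting of CellTiter-Glo luminescence after 72-168 h compound exposure (final 1 nM-10 μM) at 37° C and 5% CO2, with 5,000-20,000 cells plated per well.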
On the technique in general: In ATP-based viability assays light output follows the ATP content of the culture.

Data set [2] concerns the target Menin/MLL-4-43 peptide interaction (Homo sapiens (Human), UniProt O00255). Description: Menin-MLL interaction inhibitory activity assay (fluorescence polarization competition). It counts as binding. The conditions noted are these: FITC-MLL4-43-peptide, Menin recombinant protein. An outline of the steps: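 Menin (8 nM solution) was preincubated 15 min with compound, then FITC-MLL4-43 peptide (10 nM solution) was added and shaken for 60 min at 25 °C. The buffer was 50 mM Tris pH 7.5, 50 mM NaCl, 1 mM DTT. IC50 was derived from fluorescence polarization read at 485/520 nm.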
(In general: Fluorescence polarisation rises when a labelled molecule tumbles more slowly, as on binding a larger partner.)

The nature of data set [3]: Stability in mouse liver microsomes. It counts as in vitro ADME. The conditions noted are these: liver microsomes, pH 7.4, 0.5 mg/mL microsomal protein, 1.00 μM compound, NADPH, read-out: Half life T1/2, mouse liver microsomes. The method, boiled down:
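Compound at 1.00 μM incubated at 37° C with 0.5 mg/mL liver microsomal protein and 2.00 mM NADPH in 100 mM phosphate buffer pH 7.4, sampled 0–60 min with acetonitrile quench. Parent remaining by LC-MS/MS; T½ from ln-remaining slope, CLint scaled by microsomal concentration and conversion factor.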
(Microsomes from liver hold many membrane-bound enzymes, among them those of drug oxidation.)

The target in data set [4] is hERG potassium ion channel (Homo sapiens (Human), UniProt Q12809). The experiment in a line: hERG potassium channel effect test (manual patch clamp, HEK293 cells overexpressing hERG). The conditions noted are these: for inhibition at 30 μM: human, HEK293 cells overexpressing hERG potassium ion channels, read-out: Average inhibition rate of hERG current at the highest compound tested concentration; for IC50: manual patch clamp, highest test concentration 30 μM. It counts as cell-based. As for the experimental part: Test Example 6: hERG Potassium Channel Effect Test
Chain of hERG potassium ion channel (Q12809 whole entry): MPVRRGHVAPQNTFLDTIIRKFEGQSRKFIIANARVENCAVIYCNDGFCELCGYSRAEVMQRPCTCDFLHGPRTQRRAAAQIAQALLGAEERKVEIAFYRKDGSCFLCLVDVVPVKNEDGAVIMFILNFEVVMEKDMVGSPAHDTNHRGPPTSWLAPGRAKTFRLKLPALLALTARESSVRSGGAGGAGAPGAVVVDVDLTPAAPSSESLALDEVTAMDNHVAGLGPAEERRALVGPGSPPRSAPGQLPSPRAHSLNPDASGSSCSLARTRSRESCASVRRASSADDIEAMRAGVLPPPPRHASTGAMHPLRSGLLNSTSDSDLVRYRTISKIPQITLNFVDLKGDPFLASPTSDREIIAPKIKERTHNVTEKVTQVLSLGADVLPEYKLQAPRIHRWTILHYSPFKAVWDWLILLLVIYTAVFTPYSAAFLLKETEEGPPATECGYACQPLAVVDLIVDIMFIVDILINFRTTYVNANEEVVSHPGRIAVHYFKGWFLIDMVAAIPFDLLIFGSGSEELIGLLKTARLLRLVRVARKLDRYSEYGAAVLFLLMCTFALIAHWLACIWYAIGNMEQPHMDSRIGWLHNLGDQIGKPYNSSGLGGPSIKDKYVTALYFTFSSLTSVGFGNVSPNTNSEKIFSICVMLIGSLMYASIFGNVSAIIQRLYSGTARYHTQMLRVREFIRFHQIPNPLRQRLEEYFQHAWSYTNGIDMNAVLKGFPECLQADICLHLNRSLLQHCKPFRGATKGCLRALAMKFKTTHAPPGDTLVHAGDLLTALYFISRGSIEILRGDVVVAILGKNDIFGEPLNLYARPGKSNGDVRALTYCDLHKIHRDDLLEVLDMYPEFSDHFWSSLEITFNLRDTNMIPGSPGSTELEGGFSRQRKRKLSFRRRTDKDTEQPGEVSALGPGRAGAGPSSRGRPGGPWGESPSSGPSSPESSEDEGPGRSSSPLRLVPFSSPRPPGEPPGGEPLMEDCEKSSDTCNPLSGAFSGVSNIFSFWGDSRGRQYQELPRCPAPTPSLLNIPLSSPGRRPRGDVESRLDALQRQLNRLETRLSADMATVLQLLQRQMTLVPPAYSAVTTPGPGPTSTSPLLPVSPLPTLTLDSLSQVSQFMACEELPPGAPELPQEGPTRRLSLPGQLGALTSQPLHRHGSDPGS
The hERG inhibition test was performed on some of the example compounds of the present disclosure using the manual electrophysiological patch clamp method. The cell line was derived from HEK293 cells that overexpressed hERG potassium ion channels. The specific experimental protocol was developed by PharmaCore Labs with reference to literature published in peer-reviewed journals and was performed by PharmaCore Labs in accordance with its standard experimental operating procedures. The highest test concentration was 30 μM.

Structures are written as SMILES.

Chain of Menin/MLL-4-43 peptide interaction (O00255 whole entry, species assumed): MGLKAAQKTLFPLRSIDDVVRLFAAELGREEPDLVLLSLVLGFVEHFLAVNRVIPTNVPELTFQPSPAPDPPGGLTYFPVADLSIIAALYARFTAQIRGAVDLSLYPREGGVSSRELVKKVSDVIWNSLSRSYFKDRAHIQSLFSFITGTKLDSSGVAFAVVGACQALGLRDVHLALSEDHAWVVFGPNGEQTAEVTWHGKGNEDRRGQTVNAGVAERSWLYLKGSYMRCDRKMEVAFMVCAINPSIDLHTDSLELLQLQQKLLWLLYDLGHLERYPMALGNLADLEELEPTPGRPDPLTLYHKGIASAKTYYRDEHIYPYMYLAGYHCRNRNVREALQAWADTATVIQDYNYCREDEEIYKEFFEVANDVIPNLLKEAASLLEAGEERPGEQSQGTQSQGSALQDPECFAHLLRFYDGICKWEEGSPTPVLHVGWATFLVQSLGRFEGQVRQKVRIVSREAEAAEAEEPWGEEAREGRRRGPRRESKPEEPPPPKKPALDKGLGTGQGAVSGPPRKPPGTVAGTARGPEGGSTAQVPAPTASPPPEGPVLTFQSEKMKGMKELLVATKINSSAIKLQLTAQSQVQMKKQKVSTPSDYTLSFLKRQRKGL

One may read the GI50 as the concentration at which growth is held to half of that of the control. Low values mean more potent growth inhibition, high ones less potent growth inhibition. The IC50 is the concentration that inhibits the measured activity by half. In data set [1], `CC(C)N(C(=O)c1cc(F)ccc1Oc1nncnc1N1CC2(CCN(CC3CC4CCC3CC43CCC(=O)N3)CC2)C1)C(C)C` (single isomer, unassigned) [Example 15-1a] showed a GI50 of 82.5 nM. For the same compound, the IC50 in data set [2] amounted to 34.7 nM. The half-life at 1 μM in data set [3] came out at 1.52 h.

In the case of `CCN(C(=O)c1cc(F)ccc1Oc1cncnc1N1CC2(CCN(C[C@H]3CC[C@]4(CC3)CC(COC)(COC)C(=O)N4)CC2)C1)C(C)C` [Example 17], halving of growth in data set [1] (GI50) required 14.2 nM. In addition, in data set [2], the IC50 came out at 5 nM. Besides, the half-life at 1 μM in data set [3] is greater than 2 h.

`COC[C@H]1C[C@]2(CC[C@@H](CN3CCC4(CC3)CN(c3ncnnc3Oc3ccc(F)cc3C(=O)N(C(C)C)C(C)C)C4)CC2)NC1=O` [Example 38-1] displayed a GI50 in data set [1] of 115 nM. Also, the IC50 in data set [2] came to 16.3 nM. In data set [4], the inhibition at 30 μM came out at 10.3% and the IC50 is greater than 30000 nM. In data set [3], the half-life at 1 μM is greater than 2 h.

`COCC1(COC)C[C@]2(CC[C@@H](CN3CCC4(CC3)CN(c3ncnnc3Oc3ccc(F)cc3C(=O)N(C(C)C)C(C)C)C4)CC2)NC1=O` [Example 20] gave a GI50 in data set [1] of 35.2 nM. For the same compound, the IC50 in data set [2] is 6 nM; in data set [4], greater than 30000 nM. Further, the inhibition at 30 μM in data set [4] was determined as 13.2%. For the same compound, the half-life at 1 μM in data set [3] worked out at 1.85 h.

`COC[C@@H]1C[C@]2(CC[C@@H](CN3CCC4(CC3)CN(c3ncnnc3Oc3ccc(F)cc3C(=O)N(C(C)C)C(C)C)C4)CC2)NC1=O` [Example 38-2]: in data set [1], halving of growth (GI50) required 21.8 nM. In data set [2], the IC50 was 2.8 nM. Also, the half-life at 1 μM in data set [3] turned out to be 1.08 h.
